Assay results reported in patent US8685992B2, “Histone deacetylase inhibitors based simultaneously on trisubstituted 1H-pyrroles and aromatic and heteroaromatic spacers” (Universidad del País Vasco, priority 2009, dated 2014).

Columns and labels:
Human HDAC2 = Human HDAC2 (Homo sapiens (Human), UniProt Q92769); assay: HDAC2 fluorogenic peptide deacetylation assay; type: biochemical; settings: human HDAC2, 50 μM substrate, 30° C., 2 h; read-out: IC50 (nM) of enzyme activity HDAC2
Human HDAC1 = Human HDAC1 (Homo sapiens (Human), UniProt Q13547); assay: HDAC1 fluorogenic peptide deacetylation assay; type: biochemical; settings: human HDAC1, 50 μM substrate, 30° C., 2 h; read-out: IC50 (nM) of enzyme activity HDAC1
Human HDAC8 = Human HDAC8 (Homo sapiens (Human), UniProt Q9BY41); assay: HDAC8 fluorogenic peptide deacetylation assay; type: biochemical; settings: human HDAC8, 50 μM substrate, 30° C., 2 h; read-out: IC50 (nM) of enzyme activity HDAC8
[1] = test system: Nuclear Extract from HeLa Cells; assay: HeLa Nuclear Extract HDAC assay; type: biochemical, human; settings: 50 μM substrate, 30° C., 2 h, read-out: IC50 (nM) of enzyme activity HeLa
Human HDAC3/NcoR2 = Human HDAC3/NcoR2 (Homo sapiens (Human), UniProt O15379); assay: HDAC3 fluorogenic peptide deacetylation assay; type: biochemical; settings: human HDAC3/NcoR2, 50 μM substrate, 30° C., 2 h; read-out: IC50 (nM) of enzyme activity HDAC3
Human HDAC6 = Human HDAC6 (Homo sapiens (Human), UniProt Q9UBN7); assay: HDAC6 fluorogenic peptide deacetylation assay; type: biochemical; settings: human HDAC6, 50 μM substrate, 30° C., 2 h; read-out: IC50 (nM) of enzyme activity HDAC6
[2] = target: histone deacetylase from rat liver; assay: Rat liver HDAC assay; type: biochemical; settings: Boc-Lys(Ac)-AMC substrate, 30° C., 2 h, read-out: IC50 (nM) of enzyme activity Rat liver

Human HDAC6, sequence (Q9UBN7 whole entry): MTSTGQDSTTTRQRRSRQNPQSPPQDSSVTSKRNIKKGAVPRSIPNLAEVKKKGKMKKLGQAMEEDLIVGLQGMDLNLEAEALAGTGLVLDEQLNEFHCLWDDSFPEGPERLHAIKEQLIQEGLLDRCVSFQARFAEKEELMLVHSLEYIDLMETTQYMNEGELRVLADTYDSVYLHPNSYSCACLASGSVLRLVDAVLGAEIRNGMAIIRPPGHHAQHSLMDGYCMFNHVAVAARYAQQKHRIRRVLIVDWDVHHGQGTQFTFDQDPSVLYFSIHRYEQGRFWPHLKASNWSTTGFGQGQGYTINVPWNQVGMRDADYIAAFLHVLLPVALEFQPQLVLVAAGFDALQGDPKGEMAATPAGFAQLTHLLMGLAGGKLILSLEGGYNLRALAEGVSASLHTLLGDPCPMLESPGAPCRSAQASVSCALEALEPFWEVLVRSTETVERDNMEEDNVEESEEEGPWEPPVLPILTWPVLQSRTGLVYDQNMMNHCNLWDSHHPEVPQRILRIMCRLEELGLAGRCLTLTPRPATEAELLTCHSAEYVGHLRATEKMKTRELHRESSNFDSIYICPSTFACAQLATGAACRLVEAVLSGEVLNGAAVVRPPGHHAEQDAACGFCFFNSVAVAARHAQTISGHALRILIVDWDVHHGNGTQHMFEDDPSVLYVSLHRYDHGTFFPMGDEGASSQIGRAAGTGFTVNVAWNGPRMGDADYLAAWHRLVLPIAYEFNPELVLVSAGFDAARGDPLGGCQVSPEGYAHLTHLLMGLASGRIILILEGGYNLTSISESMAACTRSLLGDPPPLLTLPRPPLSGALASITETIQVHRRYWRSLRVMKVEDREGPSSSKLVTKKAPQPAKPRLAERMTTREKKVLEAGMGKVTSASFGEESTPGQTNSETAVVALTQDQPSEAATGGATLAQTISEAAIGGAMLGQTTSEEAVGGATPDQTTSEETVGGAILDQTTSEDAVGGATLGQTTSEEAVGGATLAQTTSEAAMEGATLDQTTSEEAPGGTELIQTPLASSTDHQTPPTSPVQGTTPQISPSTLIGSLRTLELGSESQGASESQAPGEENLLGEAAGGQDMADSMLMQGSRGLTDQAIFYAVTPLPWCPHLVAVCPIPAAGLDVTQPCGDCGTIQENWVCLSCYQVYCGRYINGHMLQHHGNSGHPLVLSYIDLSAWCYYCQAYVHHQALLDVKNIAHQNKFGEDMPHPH
Human HDAC1, sequence (Q13547 whole entry): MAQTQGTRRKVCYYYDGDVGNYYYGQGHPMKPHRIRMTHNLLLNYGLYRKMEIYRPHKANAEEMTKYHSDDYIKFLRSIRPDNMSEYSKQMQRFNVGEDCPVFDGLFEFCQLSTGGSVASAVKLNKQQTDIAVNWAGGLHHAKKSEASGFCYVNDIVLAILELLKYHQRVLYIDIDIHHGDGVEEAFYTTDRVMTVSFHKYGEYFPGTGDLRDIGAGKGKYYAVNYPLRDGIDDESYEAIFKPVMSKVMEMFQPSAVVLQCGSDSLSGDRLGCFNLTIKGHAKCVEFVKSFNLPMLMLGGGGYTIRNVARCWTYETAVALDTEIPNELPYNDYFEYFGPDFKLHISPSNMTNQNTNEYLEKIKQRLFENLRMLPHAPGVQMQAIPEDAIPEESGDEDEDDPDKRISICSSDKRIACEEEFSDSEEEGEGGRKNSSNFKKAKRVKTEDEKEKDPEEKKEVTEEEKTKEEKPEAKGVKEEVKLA
Human HDAC2, sequence (Q92769 whole entry): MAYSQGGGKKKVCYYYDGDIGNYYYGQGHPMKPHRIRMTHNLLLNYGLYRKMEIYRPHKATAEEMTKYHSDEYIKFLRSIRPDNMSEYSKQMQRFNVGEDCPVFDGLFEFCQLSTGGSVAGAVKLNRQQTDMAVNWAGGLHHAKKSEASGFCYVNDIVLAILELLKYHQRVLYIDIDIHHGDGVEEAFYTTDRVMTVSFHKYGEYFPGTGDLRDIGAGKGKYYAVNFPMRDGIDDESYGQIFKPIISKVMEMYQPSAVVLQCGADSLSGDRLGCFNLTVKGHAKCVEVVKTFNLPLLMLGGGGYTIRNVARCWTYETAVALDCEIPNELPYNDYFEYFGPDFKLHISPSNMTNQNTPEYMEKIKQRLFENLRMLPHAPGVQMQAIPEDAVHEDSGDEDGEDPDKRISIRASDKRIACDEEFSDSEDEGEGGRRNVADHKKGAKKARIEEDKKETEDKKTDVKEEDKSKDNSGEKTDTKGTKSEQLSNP
Human HDAC3/NcoR2, sequence (O15379 whole entry): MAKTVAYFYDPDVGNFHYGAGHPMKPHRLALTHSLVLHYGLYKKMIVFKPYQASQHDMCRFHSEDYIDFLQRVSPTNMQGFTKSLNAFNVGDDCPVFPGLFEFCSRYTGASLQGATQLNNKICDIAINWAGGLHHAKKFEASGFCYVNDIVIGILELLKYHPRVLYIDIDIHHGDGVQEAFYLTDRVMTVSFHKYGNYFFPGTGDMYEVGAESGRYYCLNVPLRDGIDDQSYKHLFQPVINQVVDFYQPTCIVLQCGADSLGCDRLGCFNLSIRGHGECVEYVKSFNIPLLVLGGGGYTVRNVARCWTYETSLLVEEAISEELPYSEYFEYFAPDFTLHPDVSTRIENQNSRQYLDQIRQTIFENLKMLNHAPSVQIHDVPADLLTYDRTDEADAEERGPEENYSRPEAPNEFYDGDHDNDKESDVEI
Human HDAC3/NcoR2, sequence (Q9Y618 395-489 partner): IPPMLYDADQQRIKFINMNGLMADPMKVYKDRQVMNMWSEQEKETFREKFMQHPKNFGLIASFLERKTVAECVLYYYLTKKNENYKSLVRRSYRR
Human HDAC8, sequence (Q9BY41 whole entry): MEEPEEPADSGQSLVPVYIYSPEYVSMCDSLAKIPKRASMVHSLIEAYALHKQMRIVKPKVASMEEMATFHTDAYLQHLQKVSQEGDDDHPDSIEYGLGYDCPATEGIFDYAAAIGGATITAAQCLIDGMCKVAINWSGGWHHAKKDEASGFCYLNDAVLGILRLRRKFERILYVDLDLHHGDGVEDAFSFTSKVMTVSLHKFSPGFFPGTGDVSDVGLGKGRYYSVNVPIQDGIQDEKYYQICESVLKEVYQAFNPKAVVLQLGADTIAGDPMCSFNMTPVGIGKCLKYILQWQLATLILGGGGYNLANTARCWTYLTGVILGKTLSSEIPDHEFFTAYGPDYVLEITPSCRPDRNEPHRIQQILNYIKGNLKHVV

Row | SMILES | IC50 (Human HDAC2) | IC50 (Human HDAC1) | melting point | IC50 (Human HDAC8) | IC50 [1] | IC50 (Human HDAC3/NcoR2) | IC50 (Human HDAC6) | IC50 [2]
1 | O=C(NO)c1ccc(CNC(=O)c2[nH]c(-c3cccs3)cc2-c2ccc(F)cc2)nc1 [Example 11, 6-[({[3-(4-fluorophenyl)-5-(2-thienyl)-1H-pyrrol-2-yl]carbonyl}amino)methyl]-N-hydroxynicotinamide] | 2530 nM | 744 nM | 151 to 152 °C | 181 nM | 68.3 nM | 754 nM |  | 
2 | O=C(NO)c1ccc(CNC(=O)c2[nH]c(-c3cccs3)cc2-c2ccc(O)cc2)cc1 [Example 13, N-{4-[(hydroxyamino)carbonyl]benzyl}-3-(4-hydroxyphenyl)-5-(2-thienyl)-1H-pyrrole-2-carboxamide] | 1910 nM | 865 nM | 171 to 172 °C | 559 nM | 42 nM | 614 nM | 6.6 nM | 
3 | COc1ccc(-c2cc(-c3ccccc3)[nH]c2C(=O)Nc2ccc(C(=O)NO)o2)cc1 [Example 16, N-{5-[(hydroxyamino)carbonyl]-2-furyl}-3-(4-methoxyphenyl)-5-phenyl-1H-pyrrole-2-carboxamide] |  |  | 160 to 162 °C |  |  |  |  | > 10000 nM
4 | O=C(NO)c1ccc(CNC(=O)c2[nH]c(-c3ccccc3)cc2-c2ccc(F)cc2)o1 [Example 17, 3-(4-fluorophenyl)-N-({5-[(hydroxyamino)carbonyl]-2-furyl}methyl)-5-phenyl-1H-pyrrole-2-carboxamide] |  |  | 152 to 153 °C |  |  |  |  | 9790 nM
5 | COc1ccc(-c2cc(-c3ccccc3)[nH]c2C(=O)Nc2cccc(CC(=O)NO)c2)cc1 [Example 18, N-{3-[2-(hydroxyamino)-2-oxoethyl]phenyl}-3-(4-methoxyphenyl)-5-phenyl-1H-pyrrole-2-carboxamide] |  |  | 205 to 206 °C |  |  |  |  | > 10000 nM
6 | COc1ccc(-c2cc(-c3ccccc3)[nH]c2C(=O)Nc2ccc(C(=O)NO)cc2)cc1 [Example 19, N-{4-[(hydroxyamino)carbonyl]phenyl}-3-(4-methoxyphenyl)-5-phenyl-1H-pyrrole-2-carboxamide] |  |  | 234 to 235 °C |  |  |  |  | 101 nM
7 | COc1ccc(-c2cc(-c3ccccc3)[nH]c2C(=O)NCc2ccc(C(=O)NCCS)cc2)cc1 [Example 23, 3-(4-methoxyphenyl)-5-phenyl-N-(4-{[(2-sulfanylethyl)amino]carbonyl}benzyl)-1H-pyrrole-2-carboxamide] |  |  |  |  |  |  |  | > 10000 nM
8 | COc1ccc(-c2cc(-c3ccccc3)[nH]c2C(=O)NCc2ccc(C(=O)Nc3ccccn3)cc2)cc1 [Example 25, 3-(4-methoxyphenyl)-5-phenyl-N-{4-[(pyridin-2-ylamino)carbonyl]benzyl}-1H-pyrrole-2-carboxamide] | > 5000 nM | > 5000 nM | 196 °C (dec.) | > 5000 nM | > 5000 nM | > 5000 nM | > 5000 nM | 
9 | O=C(NO)c1ccc(CNC(=O)c2[nH]c(-c3ccccc3)cc2-c2ccc(F)cc2)cc1 [Example 29, 3-(4-fluorophenyl)-N-{4-[(hydroxyamino)carbonyl]benzyl}-5-phenyl-1H-pyrrole-2-carboxamide] |  |  |  |  | 73 nM |  |  | 71 nM
10 | O=C(NO)c1ccc(CNC(=O)c2[nH]c(-c3ccc(F)cc3)cc2-c2ccc(F)cc2)cc1 [Example 30, 3,5-bis-(4-fluorophenyl)-N-{4-[(hydroxyamino)carbonyl]benzyl}-1H-pyrrole-2-carboxamide] |  |  |  |  | 90 nM |  |  | 82 nM
11 | O=C(NO)c1ccc(CNC(=O)c2[nH]c(-c3cccs3)cc2-c2ccc(F)cc2)cc1 [Example 31, 3-(4-fluorophenyl)-N-{4-[(hydroxyamino)carbonyl]benzyl}-5-(2-thienyl)-1H-pyrrole-2-carboxamide] |  |  |  |  | 58 nM |  |  | 49 nM
12 | O=C(NO)c1ccc(CNC(=O)c2[nH]c(-c3cccs3)cc2-c2ccc(F)cc2)cn1 [Example 32, 3-(4-fluorophenyl)-N-{2-[(hydroxyamino)carbonyl]-5-pyridyl-methyl}-5-(2-thienyl)-1H-pyrrole-2-carboxamide] |  |  |  |  | 390 nM |  |  | 
13 | Nc1ccccc1NC(=O)c1ccc(CNC(=O)c2[nH]c(-c3ccc(O)cc3)cc2-c2ccsc2)cc1 [Example 33, N-(4-{[(2-aminophenyl)amino)carbonyl]benzyl}-5-(4-hydroxyphenyl)-3-(3-thienyl)-1H-pyrrole-2-carboxamide] | 364 nM | 103 nM |  | > 5000 nM | 3270 nM | 732 nM | > 5000 nM | 
14 | Nc1ccccc1NC(=O)c1ccc(CNC(=O)c2[nH]c(-c3ccoc3)cc2-c2ccc(O)cc2)cc1 [Example 34, N-(4-{[(2-aminophenyl)amino)carbonyl]benzyl}-5-(3-furyl)-3-(4-hydroxyphenyl)-1H-pyrrole-2-carboxamide] | 349 nM | 86 nM |  | > 5000 nM | 1540 nM | 770 nM | 1260 nM | 
15 | Nc1ccccc1NC(=O)c1ccc(CNC(=O)c2[nH]c(-c3ccc(O)cc3)cc2-c2ccccc2)cc1 [Example 35, N-(4-{[(2-Aminophenyl)amino)carbonyl]benzyl}-5-(4-hydroxyphenyl)-3-phenyl-1H-pyrrole-2-carboxamide] | 433 nM | 108 nM |  | > 5000 nM | 4280 nM | 806 nM | > 5000 nM | 
16 | Nc1ccccc1NC(=O)c1ccc(CNC(=O)c2[nH]c(-c3ccsc3)cc2-c2ccc(O)cc2)cc1 [Example 36, N-(4-{[(2-aminophenyl)amino)carbonyl]benzyl}-3-(4-hydroxyphenyl)-5-(3-thienyl)-1H-pyrrole-2-carboxamide] | 752 nM | 222 nM |  | > 5000 nM | 4080 nM | 2070 nM | > 5000 nM | 
17 | COc1ccc(-c2cc(-c3ccccc3)[nH]c2C(=O)NCc2ccc(C(=O)NO)cc2)cc1 [Example 38, N-{4-[(hydroxyamino)carbonyl]benzyl}-3-(4-methoxyphenyl)-5-phenyl-1H-pyrrole-2-carboxamide] |  |  |  |  |  |  |  | 70 nM
18 | O=C(NO)c1ccc(CNC(=O)c2[nH]c(-c3ccccc3)cc2-c2ccc(C(F)(F)F)cc2)cc1 [Example 39, N-{4-[(hydroxyamino)carbonyl]benzyl}-5-phenyl-3-(4-trifluoromethylphenyl)-1H-pyrrole-2-carboxamide] |  |  |  |  |  |  |  | 170 nM
19 | O=C(NO)c1ccc(CNC(=O)c2[nH]c(-c3ccccc3)cc2-c2ccc(Br)cc2)cc1 [Example 40, 3-(4-bromophenyl)-N-{4-[(hydroxyamino)carbonyl]benzyl}-5-phenyl-1H-pyrrole-2-carboxamide] |  |  |  |  |  |  |  | 99 nM
20 | COc1ccc(-c2cc(-c3ccccc3)[nH]c2C(=O)NCc2ccc(C(=O)NO)cc2)cc1OC [Example 41, N-{4-[(hydroxyamino)carbonyl]benzyl}-3-(3,4-dimethoxyphenyl)-5-phenyl-1H-pyrrole-2-carboxamide] |  |  |  |  |  |  |  | 119 nM
21 | O=C(NO)c1ccc(CNC(=O)c2[nH]c(-c3ccccc3)cc2-c2ccc(F)c(F)c2)cc1 [Example 42, 3-(3,4-difluorophenyl)-N-{4-[(hydroxyamino)carbonyl]benzyl}-5-phenyl-1H-pyrrole-2-carboxamide] |  |  |  |  |  |  |  | 129 nM
22 | O=C(NO)c1ccc(CNC(=O)c2[nH]c(-c3ccccc3)cc2-c2ccc([N+](=O)[O-])cc2)cc1 [Example 43, N-{4-[(hydroxyamino)carbonyl]benzyl}-3-(4-nitrophenyl)-5-phenyl-1H-pyrrole-2-carboxamide] |  |  |  |  |  |  |  | 62 nM
23 | O=C(NO)c1ccc(CNC(=O)c2[nH]c(-c3ccccc3)cc2-c2ccc(Cl)c(Cl)c2)cc1 [Example 44, 3-(3,4-dichlorophenyl)-N-{4-[(hydroxyamino)carbonyl]benzyl}-5-phenyl-1H-pyrrole-2-carboxamide] |  |  |  |  |  |  |  | 153 nM
24 | O=C(NO)c1ccc(CNC(=O)c2[nH]c(-c3ccccc3)cc2-c2cccc(Br)c2)cc1 [Example 45, 3-(3-bromophenyl)-N-{4-[(hydroxyamino)carbonyl]benzyl}-5-phenyl-1H-pyrrole-2-carboxamide] |  |  |  |  |  |  |  | 115 nM
25 | O=C(NO)c1ccc(CNC(=O)c2[nH]c(-c3cccnc3)cc2-c2ccc(F)cc2)cc1 [Example 46, 3-(4-fluorophenyl)-N-{4-[(hydroxyamino)carbonyl]benzyl}-5-(3-pyridinyl)-1H-pyrrole-2-carboxamide] |  |  |  |  |  |  |  | 70 nM
26 | Cc1ccc(-c2cc(-c3ccc(F)cc3)c(C(=O)NCc3ccc(C(=O)NO)cc3)[nH]2)cc1 [Example 47, 3-(4-fluorophenyl)-N-{4-[(hydroxyamino)carbonyl]benzyl}-5-(4-methylphenyl)-1H-pyrrole-2-carboxamide] |  |  |  |  |  |  |  | 108 nM
27 | COc1ccc(-c2cc(-c3ccccc3)[nH]c2C(=O)NCCCCCC(=O)NO)cc1 [Kendine 91, N-[6-(hydroxyamino)-6-oxohexyl]-3-(4-methoxyphenyl)-5-phenyl-1H-pyrrole-2-carboxamide, reference compound] | 1690 nM | 508 nM |  | 146 nM | 43 nM | 613 nM | 34.9 nM | 
